Source: ChEMBL document CHEMBL5113383, “Application of the All-Hydrocarbon Stapling Technique in the Design of Membrane-Active Peptides” (J Med Chem, 2022)
≈ marks a conversion by molar mass, not a printed value. Positions of bridges follow the written chain, without caps; N, C: chain ends. Non-standard residues stand in square brackets, D forms with d. Residues, ends and D or L forms follow the SMILES beside them. S5 = C=CCCC[C@](C)(N)C(=O)O

Columns and labels:
[1] = Hemolytic activity in human erythrocytes incubated for 30 mins; type: toxicity, cell-based, Erythrocyte
Candida tropicalis [2] = assay: Antimicrobial activity against Candida tropicalis 895; type: functional
Candida albicans [3] = assay: Antimicrobial activity against Candida albicans SC5314; type: functional
Candida albicans [4] = assay: Antimicrobial activity against Candida albicans 904; type: functional
Candida albicans [5] = assay: Antimicrobial activity against Candida albicans 901; type: functional
Nakaseomyces glabratus [6] = assay: Antimicrobial activity against Candida glabrata ATCC 1182; type: functional
Pichia kudriavzevii = assay: Antimicrobial activity against Candida krusei ATCC 2340; type: functional
Nakaseomyces glabratus [7] = assay: Antimicrobial activity against Candida glabrata 896; type: functional
Candida parapsilosis = assay: Antimicrobial activity against Candida parapsilosis ATCC 22010; type: functional; conditions: Lodderomyces parapsilosis
Candida tropicalis [8] = assay: Antimicrobial activity against Candida tropicalis ATCC 20026; type: functional
[Candida] auris [9] = Antimicrobial activity against Candida auris 918; type: functional; conditions: Candidozyma auris
[Candida] auris [10] = Antimicrobial activity against Candida auris 919; type: functional; conditions: Candidozyma auris

Compound	MIC (Candida tropicalis [2]) [µg/mL]	MIC (Candida albicans [3]) [µg/mL]	MIC (Candida albicans [4]) [µg/mL]	MIC (Candida albicans [5]) [µg/mL]	MIC (Nakaseomyces glabratus [6]) [µg/mL]	MIC (Pichia kudriavzevii) [µg/mL]	MIC (Nakaseomyces glabratus [7]) [µg/mL]	MIC (Candida parapsilosis) [µg/mL]	MIC (Candida tropicalis [8]) [µg/mL]	MIC ([Candida] auris [9]) [µg/mL]	MIC ([Candida] auris [10]) [µg/mL]	HC50 at 0.5 h [1] [nM]
CC(C)C[C@@H]1NC(=O)[C@H](CCCCN)NC(=O)[C@H](Cc2c[nH]c3ccccc23)NC(=O)[C@@](C)(NC(=O)[C@@H](N)CCCCN)CCC/C=C\CCC[C@@](C)(C(=O)N[C@@H](CCCCN)C(N)=O)NC1=O (H-K[S5]WKL[S5]K-NH2; staple (Z) 2-6)	–	–	–	–	–	–	–	–	–	–	–	< 1000
CC[C@H](C)[C@H](N)C(=O)N[C@@H](CC(=O)O)C(=O)N[C@@H](Cc1c[nH]c2ccccc12)C(=O)N[C@@H](CCCCN)C(=O)N[C@@H](CCCCN)C(=O)N[C@@]1(C)CCC/C=C\CCC[C@@](C)(C(=O)N[C@@H](CCCCN)C(=O)N[C@@H](CCC(N)=O)C(=O)N[C@H](C(=O)N[C@@H](CC(C)C)C(=O)O)[C@@H](C)CC)NC(=O)[C@H](C)NC(=O)[C@H](CC(=O)O)NC(=O)[C@H](CC(C)C)NC1=O (H-IDWKK[S5]LDA[S5]KQIL-OH; staple (Z) 6-10)	–	–	–	–	–	–	–	–	–	–	–	12300
CC[C@H](C)[C@H](NC(=O)[C@H](CC(=O)O)NC(=O)[C@H](Cc1ccccc1)NC(=O)[C@H](CC(C)C)NC(=O)CNC(C)=O)C(=O)N[C@H](C(=O)N[C@@H](CCCCN)C(=O)N[C@@H](CCCCN)C(=O)N[C@@]1(C)CCC/C=C\CCC[C@@](C)(C(N)=O)NC(=O)[C@H](CO)NC(=O)[C@H](CCC(=O)O)NC(=O)[C@H](C)NC1=O)[C@@H](C)CC (Ac-GLFDIIKK[S5]AES[S5]-NH2; staple (Z) 9-13)	32 (≈ 21.2 µM)	> 64	> 128	> 128	> 128	> 128	> 128	> 128	> 128	> 128	> 128	–
CC(=O)N[C@@H](CCCCN)C(=O)N[C@@]1(C)CCC/C=C\CCC[C@@](C)(C(=O)N[C@@H](CCCCN)C(N)=O)NC(=O)[C@H](C)NC(=O)[C@H](CCCCN)NC(=O)[C@H](Cc2c[nH]c3ccccc23)NC1=O (Ac-K[S5]WKA[S5]K-NH2; staple (Z) 2-6)	–	–	–	–	–	–	–	–	–	–	–	1400
CC(=O)N[C@@H](CCCCN)C(=O)N[C@@]1(C)CCC/C=C\CCC[C@@](C)(C(=O)N[C@@H](CCCCN)C(N)=O)NC(=O)[C@H](CC(C)C)NC(=O)[C@H](CCCCN)NC(=O)[C@H](Cc2c[nH]c3ccccc23)NC1=O (Ac-K[S5]WKL[S5]K-NH2; staple (Z) 2-6)	–	–	–	–	–	–	–	–	–	–	–	< 1000

Continued, in another order:

MIC (Candida tropicalis [2]) [µg/mL]	MIC (Candida albicans [3]) [µg/mL]	MIC (Candida albicans [4]) [µg/mL]	MIC (Candida albicans [5]) [µg/mL]	MIC (Nakaseomyces glabratus [6]) [µg/mL]	MIC (Pichia kudriavzevii) [µg/mL]	MIC (Nakaseomyces glabratus [7]) [µg/mL]	MIC (Candida parapsilosis) [µg/mL]	MIC (Candida tropicalis [8]) [µg/mL]	MIC ([Candida] auris [9]) [µg/mL]	MIC ([Candida] auris [10]) [µg/mL]	Compound	HC50 at 0.5 h [1] [nM]
16 (≈ 10.4 µM)	> 64	> 128	> 128	> 128	> 128	128 (≈ 82.8 µM)	> 128	> 128	> 128	> 128	CC[C@H](C)[C@H](NC(=O)[C@H](CCCCN)NC(=O)[C@H](CCCCN)NC(=O)[C@]1(C)CCC/C=C\CCC[C@](C)(NC(=O)CNC(C)=O)C(=O)N[C@@H](Cc2ccccc2)C(=O)N[C@@H](CC(=O)O)C(=O)N[C@@H]([C@@H](C)CC)C(=O)N1)C(=O)N[C@@H](C)C(=O)N[C@@H](CCC(=O)O)C(=O)N[C@@H](CO)C(=O)N[C@@H](Cc1ccccc1)C(N)=O (Ac-G[S5]FDI[S5]KKIAESF-NH2; staple (Z) 2-6)	–
> 128	> 64	> 128	32 (≈ 20 µM)	> 128	> 128	> 128	128 (≈ 79.9 µM)	> 128	> 128	> 128	CC[C@H](C)[C@H](NC(=O)[C@H](CCCCN)NC(=O)[C@H](CCCCN)NC(=O)[C@@H](NC(=O)[C@]1(C)CCC/C=C\CCC[C@](C)(NC(C)=O)C(=O)N[C@@H](CC(C)C)C(=O)N[C@@H](Cc2ccccc2)C(=O)N[C@@H](CC(=O)O)C(=O)N1)[C@@H](C)CC)C(=O)N[C@@H](C)C(=O)N[C@@H](CCC(=O)O)C(=O)N[C@@H](CO)C(=O)N[C@@H](Cc1ccccc1)C(N)=O (Ac-[S5]LFD[S5]IKKIAESF-NH2; staple (Z) 1-5)	–
> 128	> 64	> 128	> 128	> 128	> 128	> 128	> 128	> 128	> 128	> 128	CC[C@H](C)[C@H](NC(=O)[C@H](CC(=O)O)NC(=O)[C@H](Cc1ccccc1)NC(=O)[C@H](CC(C)C)NC(=O)CN)C(=O)N[C@@]1(C)CCC/C=C\CCC[C@@](C)(C(=O)N[C@@H](CCC(=O)O)C(=O)N[C@@H](CO)C(=O)N[C@@H](Cc2ccccc2)C(N)=O)NC(=O)[C@H]([C@@H](C)CC)NC(=O)[C@H](CCCCN)NC(=O)[C@H](CCCCN)NC1=O (H-GLFDI[S5]KKI[S5]ESF-NH2; staple (Z) 6-10)	–
> 128	> 64	> 128	> 128	> 128	> 128	> 128	> 128	> 128	> 128	> 128	CC[C@H](C)[C@@H]1NC(=O)[C@H]([C@@H](C)CC)NC(=O)[C@@](C)(NC(=O)[C@H](Cc2ccccc2)NC(=O)[C@H](CC(C)C)NC(=O)CN)CCC/C=C\CCC[C@@](C)(C(=O)N[C@H](C(=O)N[C@@H](C)C(=O)N[C@@H](CCC(=O)O)C(=O)N[C@@H](CO)C(=O)N[C@@H](Cc2ccccc2)C(N)=O)[C@@H](C)CC)NC(=O)[C@H](CCCCN)NC1=O (H-GLF[S5]IIK[S5]IAESF-NH2; staple (Z) 4-8)	–
